US6528095B1, “Anti-atherosclerotic and anti-thrombotic agent and the use thereof” (Potchefstroom University for Christian Higher Education, priority 2000, dated 2003)

Assays:
fibrin clot = assay: Supplementation in human males: haemostatic variables and characteristics of fibrin networks developed in plasma; type: in vivo; settings: for CLOT (FIBRIN): clot fibrin content; for LYSIS TIME (t 50%): clot; for COMPACTION: fibrin clot; for MPC: macromolecular protein complex; for μ,: mass length ratio from turbidity; for FIBRINOGEN: plasma
Experimental: (§1) The respective effects of pectin and an acetate when administered to the colon of a mammal were determined during a first experiment. The experiment was conducted in the following two phases: [drawing 1]
(§2) Twenty human males participated in the experimentation and these subjects were not on any medication for any chronic diseases at the time, and also had no history of cardiovascular disease. All the subjects were at the time following a relatively high fibre, low fat diet. During the first phase ten subjects consumed a total of 15 grams of pectin per day in four aliquots, while the other ten consumed a total of 15 grams of placebo (starch) per day in four aliquots.
(§3) During the second phase, the first group consumed a total of 7.5 grams of calcium acetate per day in four aliquots and the second group consumed a total of 15 grams of pectin per day in four aliquots. The calcium acetate was administered in capsules which were coated with a protective coating comprising a resin known commercially as shellac. This protective coating is resistant to digestion and solution in the stomach and small intestines, is but not resistant to the enzymes of the organisms usually found in the colon, so that the calcium acetate was thus released in the colon.
(§4) Blood samples where taken from the subjects after each phase and a large number of variables where tested.

[1] = Supplementation in human males: metabolic variables; settings: for FFA: free fatty acids; for IR: insulin resistance; for TP: total protein
Experimental: as §1, §2, §3, §4

[2] = Pectin / calcium acetate supplementation in human males: body weight and BMI; type: in vivo
blood lipids = assay: Supplementation in human males: lipid variables; type: in vivo; settings: for TC: total cholesterol; for TG: triglycerides
Experimental: as §1, §2, §3, §4

[3] = Supplementation in human males: haemorheological variables (haematocrit, haemoglobin, plasma viscosity); type: in vivo; settings: for VISCOSITY: plasma
Experimental: as §1, §2, §3, §4

[4] = Pectin / calcium acetate supplementation in human males: body weight and BMI; type: in vivo; remark: listed apart in the source
Description: The acetate supplement (phase 2), however, caused a decrease (from 88.16±12.35 kg to 83.09±10.80 kg) in body weight. Although this decrease may not be of statistical significance, it can be clinically significant in the cases of those subjects who lost weight.

[5] = phase 1, end of supplementation (pectin 15 g/day)
[6] = phase 2, end of supplementation (pectin 15 g/day; calcium acetate 7.5 g/day)

## pectin
Fibrin clot; phase 1, baseline
  CLOT (FIBRIN): 2.22 g/L
  LYSIS TIME (t 50%): 285.6
  COMPACTION: 21.51%
  MPC: 0.1218 g/L
  μ,: 19.94 Dal/cm × 10^12
  FIBRINOGEN: 3.51 g/L
Fibrin clot; [5]
  CLOT (FIBRIN): 1.90 ± g/l
  LYSIS TIME (t 50%): 232.9 ±
  COMPACTION: 30.16 ± %
  MPC: 0.0836 ± g/l
  μ,: 24.80 ± Dal/cm × 10^12
  FIBRINOGEN: 3.30 g/L
Fibrin clot; phase 2, baseline
  CLOT (FIBRIN): 2.55 g/L
  LYSIS TIME (t 50%): 285.6
  COMPACTION: 20.67%
  MPC: 0.1002 g/L
  μ,: 19.02 Dal/cm × 10^12
  FIBRINOGEN: 4.11 g/L
Fibrin clot; [6]
  CLOT (FIBRIN): 1.86 ± g/l
  LYSIS TIME (t 50%): 132.9 ±
  COMPACTION: 31.53 ± %
  MPC: 0.0807 ± g/l
  μ,: 32.10 ± Dal/cm × 10^12
  FIBRINOGEN: 3.72 g/L
[1]; phase 1, baseline
  FFA: 0.39 mmol/L
  IR: 4.29
  ALBUMIN: 47.23 g/L
  GLUCOSE: 3.98 mmol/L
  INSULIN: 10.95 μU/ml
  PPA/ALB: 8.26 × 10^1
  TP: 60.55 g/L
[1]; [5]
  FFA: 0.31 ± mmol/l
  IR: 4.16
  ALBUMIN: 47.79 g/L
  GLUCOSE: 3.72 mmol/L
  INSULIN: 11.25 μU/ml
  PPA/ALB: 6.49 ± × 10^1
  TP: 66.84 g/L
[1]; phase 2, baseline
  FFA: 0.48 mmol/L
  IR: 9.40
  ALBUMIN: 45.53 g/L
  GLUCOSE: 4.29 mmol/L
  INSULIN: 18.55 μU/ml
  PPA/ALB: 10.50 × 10^1
  TP: 72.36 g/L
[1]; [6]
  FFA: 0.40 ± mmol/l
  IR: 5.77
  ALBUMIN: 45.48 ± g/l
  GLUCOSE: 4.00 mmol/L
  INSULIN: 13.83 μU/ml
  PPA/ALB: 8.78 ± × 10^1
  TP: 75.21 g/L
[2]; pectin supplemented subject group
  weight reduction: No weight reduction
[2]; phase 1, baseline
  BMI: 27.50 kg/m^2
  BODY WEIGHT: 89.50 kg
[2]; [5]
  BMI: 27.40 kg/m^2
  BODY WEIGHT: 89.10 kg
Blood lipids; pectin supplementation
  decrease in hydrogen peroxide (free radical) content of blood lipids: 49%
Blood lipids; phase 1, baseline
  % HDL-C: 18.30%
  ApoA: 1.60 mmol/L
  ApoB: 1.70 mmol/L
  HDL-C: 1.20 mmol/L
  LDL-C: 4.70 mmol/L
  TBARM: 0.60 µM
  hydrogen peroxide (H2O2): 1.70 µM
  TC: 6.50 mmol/L
  TG: 2.00 mmol/L
Blood lipids; [5]
  % HDL-C: 18.20 ± %
  ApoA: 1.23 ± mmol/l
  ApoB: 1.29 ± mmol/l
  HDL-C: 1.03 ± mmol/l
  LDL-C: 4.10 ± mmol/l
  TBARM: 0.30 µM
  hydrogen peroxide (H2O2): 0.84 ± μM
  TC: 5.67 ± mmol/l
  TG: 1.78 mmol/L
Blood lipids; phase 2, baseline
  % HDL-C: 15.46%
  ApoA: 1.53 mmol/L
  ApoB: 1.77 mmol/L
  HDL-C: 0.92 mmol/L
  LDL-C: 5.17 mmol/L
  TBARM: 2.06 µM
  hydrogen peroxide (H2O2): 1.20 µM
  TC: 6.89 mmol/L
  TG: 1.99 mmol/L
Blood lipids; [6]
  % HDL-C: 18.79 ± %
  ApoA: 1.39 ± mmol/l
  ApoB: 1.39 ± mmol/l
  HDL-C: 1.13 ± mmol/l
  LDL-C: 4.59 mmol/L
  TBARM: 0.61 ± μM
  hydrogen peroxide (H2O2): 0.73 ± μM
  TC: 6.07 mmol/L
  TG: 1.78 mmol/L
[3]; phase 1, baseline
  HAEMATOCRIT: 48.70%
  HAEMOGLOBIN: 10.30 mmol/L
  VISCOSITY: 1.81 cP
[3]; [5]
  HAEMATOCRIT: 48.10%
  HAEMOGLOBIN: 9.60 ± mmol/l
  VISCOSITY: 1.60 ± cP
[3]; phase 2, baseline
  HAEMATOCRIT: 47.38%
  HAEMOGLOBIN: 10.82 mmol/L
  VISCOSITY: 1.75 cP
[3]; [6]
  HAEMATOCRIT: 45.39%
  HAEMOGLOBIN: 9.75 ± mmol/l
  VISCOSITY: 1.62 ± cP
[4]; phase 2, baseline
  BMI: 29.46 kg/m^2
  BODY WEIGHT: 92.07 kg
[4]; [6]
  BMI: 29.32 kg/m^2
  BODY WEIGHT: 91.55 kg
